In patent US20050182025A1, “Amidinylphenyl compounds and their use as fungicides” (priority 2002, published 2005):

Columns and labels:
Type in all cases: in vivo
[1] = system: Erysiphe graminis f. sp. tritici; experiment: Test A: preventive spray on wheat seedlings, wheat powdery mildew, disease rating; conditions: wheat seedlings sprayed to run-off, inoculated the following day with Erysiphe graminis f. sp. tritici, rated after 7 days at 20° C.; test concentration not given
Description: General protocol for preparing test suspensions: Test compounds were first dissolved in acetone in an amount equal to 3% of the final volume and then suspended at the desired concentration (in ppm) in acetone and purified water (50/50 mix) containing 250 ppm of the surfactant Trem® 014 (polyhydric alcohol esters). The resulting test suspensions were then used in the following tests. Spraying a 200 ppm test suspension to the point of run-off on the test plants was the equivalent of a rate of 500 g/ha. The test suspension was sprayed to the point of run-off on wheat seedlings. The following day the seedlings were inoculated with a spore dust of Erysiphe graminis f. sp. tritici, (the causal agent of wheat powdery mildew) and incubated in a growth chamber at 20° C. for 7 days, after which disease ratings were made. Results for Tests A-C are given in Table A. In the table, a rating of 100 indicates 100% disease control and a rating of 0 indicates no disease control (relative to the controls). A dash (-) indicates no test results.

[2] = system: Septoria nodorum; experiment: Test C: preventive spray on wheat seedlings, Septoria glume blotch, disease rating; conditions: wheat seedlings sprayed to run-off, inoculated the following day with Septoria nodorum, 48 h saturated atmosphere then 9 days at 20° C.; test concentration not given
Description: (§1) General protocol for preparing test suspensions: Test compounds were first dissolved in acetone in an amount equal to 3% of the final volume and then suspended at the desired concentration (in ppm) in acetone and purified water (50/50 mix) containing 250 ppm of the surfactant Trem® 014 (polyhydric alcohol esters). The resulting test suspensions were then used in the following tests. Spraying a 200 ppm test suspension to the point of run-off on the test plants was the equivalent of a rate of 500 g/ha. The test suspension was sprayed to the point of run-off on wheat seedlings. The following day the seedlings were inoculated with a spore suspension of Septoria nodorum (the causal agent of Septoria glume blotch) and incubated in a saturated atmosphere at 20° C. for 48 h, and then moved to a growth chamber at 20° C. for 9 days, after which disease ratings were made. Results for Tests A-C are given in Table A. In the table, a rating of 100 indicates 100% disease control and a rating of 0 indicates no disease control (relative to the controls). A dash (-) indicates no test results.

[3] = system: Puccinia recondita; experiment: Test B: preventive spray on wheat seedlings, wheat leaf rust, disease rating; conditions: wheat seedlings sprayed to run-off, inoculated the following day with Puccinia recondita, 24 h saturated atmosphere then 6 days at 20° C.; test concentration not given
Description: as §1, with “Puccinia recondita” for “Septoria nodorum”, “wheat leaf rust)” for “Septoria glume blotch)”, “24” for “48”, “6” for “9”

SMILES	Test A disease control rating (100 = 100% disease control, 0 = no disease control relative to the controls) [1]	Test C disease control rating (100 = 100% disease control, 0 = no disease control relative to the controls) [2]	Test B disease control rating (100 = 100% disease control, 0 = no disease control relative to the controls) [3]
Cc1cc(NCCCC(C)C)c(C)cc1N=CN(C)C [compound 154]	0%	47%	0%
CC(=Nc1cc(C)c(OC(CCC(C)C)CCC(C)C)cc1C)N(C)C [compound 103]	31%	0%	0%
CC(=Nc1cc(C)c(OC(C)CCC(C)C)cc1C)N(C)C (stereo not drawn) [compound 102]	21%	89%	95%
CCCC(CCC)Oc1cc(C)c(N=CN(C)C)cc1C [Compound 36]	88%	0%	100%
Cc1cc(NC(=S)N(C)C)c(C)c(Cl)c1OCCCC(C)(C)C [compound 138]	98%	60%	74%
CCN(CC)C(=S)Nc1cc(Cl)c(OCCCC(C)C)cc1C [compound 113]	91%	100%	99%
Cc1cc(OCCCCCCl)c(C)cc1N=CN(C)C [Compound 17]	92%	100%	100%
CCN(C)C(=S)Nc1cc(Cl)c(OCCCC(C)(C)C)cc1C [compound 178]	100%	100%	100%
Cc1cc(OCCCC(C)(C)C)c(Cl)cc1N=CN(C)C [compound 175]	97%	100%	100%
CCN(C)C(=S)Nc1cc(Cl)c(OCCCC(C)C)cc1Cl [compound 125]	96%	100%	97%
CCN(CC)C(=S)Nc1cc(C)c(OCCCC(C)C)cc1C [compound 108]	87%	96%	89%
Cc1cc(OC(CCC(C)C)CCC(C)C)c(C)cc1N=CN(C)C [Compound 35]	95%	100%	100%
Cc1cc(OCCCC(C)C)c(C)cc1N=CN(C)C [Compound 13, N′-[2,5-Dimethyl-4-[(4-methylpentyl)oxy]-phenyl]-N,N-dimethylmethanimidamide]	97%	100%	100%
CC(=Nc1cc(Cl)c(OCCCC(C)C)c(Cl)c1C)N(C)C [compound 116]	87%	100%	92%
C=C(CCCOc1cc(C)c(N=CN(C)C)cc1C)C(C)C [Compound 9]	98%	97%	100%
CC(C)=CCOc1cc(C)c(N=CN(C)C)cc1C [Compound 1, N′-[2,5-Dimethyl-4-[(3-methyl-2-butenyl)-oxy]phenyl]-N,N-dimethylmethanimidamide]	32%	92%	100%
CCN(C)C=Nc1cc(C)c(OCCC[Si](C)(C)C)cc1C [compound 196]	100%	100%	100%
CC(=Nc1cc(C)c(OCCCC(C)C)cc1C)N(C)C [compound 96]	0%	100%	100%
CCN(CC)C(=S)Nc1cc(C)c(OCCC[Si](C)(C)C)cc1C [compound 163]	32%	73%	100%
CCCCC(CCCC)Sc1cc(C)c(N=CN(C)C)cc1C [compound 155]	0%	95%	23%
CCN(C)C(=S)Nc1cc(Cl)c(OCCCC(C)(C)C)cc1Cl [compound 187]	100%	78%	99%
C=CCCCOc1cc(C)c(N=CN(C)C)cc1C [Compound 6]	0%	60%	100%
CCN(C)C(=Nc1cc(C)c(OCCC[Si](C)(C)C)cc1C)C(=O)OC [compound 131]	67%	96%	100%
C=CCN(C)C(=S)Nc1cc(Cl)c(OCCC[Si](C)(C)C)cc1C [compound 85]	100%	100%	99%
COC(=O)C(=Nc1cc(C)c(OCCC[Si](C)(C)C)cc1C)N(C)C [compound 128]	98%	73%	95%
CC(C)=CCC[C@@H](C)CCOc1cc(C)c(N=CN(C)C)cc1C [Compound 15]	94%	0%	100%
